Laboratory results as given in patent US20110172301A1, “Use of anti-oxidant compounds for muscle recovery” (DSM IP ASSETS B.V., priority 2004, published 2011).

Key:
[1] = O2•- scavenging (xanthine/xanthine oxidase, NBT reduction); format: biochemical; settings: 50% decrease in the reduction of NBT; xanthine 150 μM, XO 5.5 mU/ml, pH 7.8, 37° C., n = 3; read-out: O2•− scavenging activity, IC50 ± SEM
Procedure: O2•- were generated by the reaction of xanthine (150 μM) and xanthine oxidase (XO) (5.5 mU/ml) in 50 mM potassium phosphate buffer (pH 7.8). O2•-radicals were detected by nitroblue tetrazolium (NBT, 50 μM). NBT undergoes reduction by O2•- to its formazan. The rate of this reduction was monitored spectrophotometrically at 560 nm during 2 minutes. Various concentrations of a scavenger were added and incubated at 37° C. The reaction was started by the addition of XO. The O2•-scavenging potential is expressed as the concentration of the scavenger giving a 50% decrease in the reduction of NBT (IC50).
To adjust for a possible inhibitory effect of the scavenger on the activity of XO, the highest concentration of the scavenger was incubated at 37° C. and subsequently the rate of the urate formation was measured at 293 nm during 2 minutes.

[2] = ONOOH scavenging (protection against ONOOH induced DHR-123 oxidation); format: biochemical; settings: 50% inhibition of oxidation of DHR-123; 5 μM DHR-123, 0.7 μM ONOOH, pH 7.4, 37° C., n = 3; read-out: ONOO− scavenging activity, IC50 ± SEM
Procedure: The protection against ONOOH induced DHR-123 oxidation of the compounds was measured as described by Kooy et al (Peroxynitrite-mediated oxidation of dihydrorhodamine 123. Free Radic Biol Med, 16; 149-56). In short, 5 μM DHR-123 and various concentrations of a scavenger were incubated in 100 mM sodium phosphate buffer (pH 7.4) at 37° C. Subsequently, ONOOH was added by pipetting a 10 μl aliquot into the tube while rapid vortexing, reaching a final concentration of 0.7 μM. Fluorescence measurements were performed with excitation and emission wavelengths of respectively 500 and 536 nm. The effects are expressed as the concentration of the scavenger giving 50% inhibition of the oxidation of DHR-123 (IC50).

[3] = system: diaphragm muscle strips; test: Organ bath experiments: force of diaphragm strips after H2O2 incubation; parameters: species or system Male Lewis rats; settings: all applied stimulation frequencies, compared with control; FIG. 1
Description: Male Lewis rats (age between 12 and 14 weeks old) were used. After decapitation, the diaphragm was rapidly excised, and small strips (around 2 mm width and 1 cm long) were cut and subsequently mounted in thermostated organ baths, containing Krebs buffer gassed with a mixture of 95% O2 and 5% CO2, pH 7.4. Each diaphragm strip was connected vertically to an isometric transducer. The composition of the Krebs buffer was (mM): NaCl (117.5), KCl (5.6), MgSO4 (1.18), CaCl2 (2.5), NaHPO4 (1.28), NaHCO3 (25) and glucose (5.5). During the experiment, the buffer was changed every 15 minutes. Field stimulation was created along the entire length of each muscle strip with platinum electrodes. At the beginning of the experiment, the strips were washed during 45 minutes at room temperature to minimize temperature dependent deterioration. Thereafter, the water bath was turned on at 37° C. (15 minutes before the start of the experiments). […] First the Pt (twitch tension at a stimulation of 1 Hz) and Po (maximal specific tension at a stimulation of 100 Hz, 250 ms duration) were determined. Thereafter, the response of the diaphragm muscle strips to increasing stimulus frequencies was assessed at Lo by the application of 10, 20, 33, 50 and 100 Hz-pulses applied in 250 ms trains. […] After that were again determined: Pt, Po, force-frequency and fatigue.

Which IC50 [1] does the source give for `O=C(O)CCCC[C@@H]1CCSS1` (racemic) [Lipoic acid, reference compound] here?
The IC50 was over 100 µM.

What about the IC50 [2] of the same compound?
The IC50 was over 200 µM.

For `OO` [H2O2, hydrogen peroxide], which “effect on muscle force” value [3] is on record?
Its value is “dose-dependently reduces the force”.

Which results are given for `COc1cc(CCO)ccc1O` [Homovanillic alcohol]?
IC50 [1]: > 200 µM; IC50 [2]: 6.6 ± 0.2 µM

With `OCCc1ccc(O)cc1` [Tyrosol] as the compound, how does the IC50 [1] read?
The IC50 was over 200 µM.

And the IC50 [2]?
Its IC50 is 99 ± 16 µM.
